{"source": "the NIST ThermoML archive (doi:10.1021/acs.jced.7b01021)", "conditions": "Liquid, Ebulliometric method (Recirculating still)", "note": "± gives the expanded uncertainty stated by the source."}
{"smiles": "CC(=O)OC(C)(C)C", "note": "[1,1-dimethylethyl ethanoate]", "values": [{"measurement": "vapor or sublimation pressure", "setting": "371.05 K", "result": "101.33 ± 0.71", "unit": "kPa"}]}
{"smiles": "Clc1ccccc1", "note": "[chlorobenzene]", "values": [{"measurement": "vapor or sublimation pressure", "setting": "404.8 K", "result": "101.33 ± 0.71", "unit": "kPa"}]}
{"smiles": "CC(C)(C)O", "note": "[2-methylpropan-2-ol]", "values": [{"measurement": "vapor or sublimation pressure", "setting": "355.59 K", "result": "101.33 ± 0.71", "unit": "kPa"}]}
